Species on record: Rattus norvegicus
Assay: DrugMatrix - Regimen: Daily Repeat
Type: toxicity, organism-based, Sprague-Dawley
Design: regimen Daily Repeat, gender Male, age 6-8 weeks
Conditions: in vivo, po, […], route oral GAVAGE; for BASOPHIL / EOSINOPHIL / ERYTHROCYTE COUNT / HEMATOCRIT / HEMOGLOBIN / LEUKOCYTE COUNT / LYMPHOCYTE / MEAN CORPUSCULAR HEMOGLOBIN / MEAN CORPUSCULAR HEMOGLOBIN CONCENTRATION / MEAN CORPUSCULAR VOLUME / MONOCYTE / NEUTROPHIL / PLATELET COUNT / ABSOLUTE BASOPHIL / ABSOLUTE EOSINOPHIL / ABSOLUTE LYMPHOCYTE / ABSOLUTE MONOCYTE / ABSOLUTE SEGMENTED NEUTROPHIL / NUCLEATED RED BLOOD CELLS: tissue Blood; for ALANINE AMINOTRANSFERASE / ALBUMIN / ALKALINE PHOSPHATASE / ASPARTATE AMINOTRANSFERASE / BLOOD UREA NITROGEN / CHLORIDE / CHOLESTEROL / CREATINE PHOSPHOKINASE / CREATININE / GLUCOSE / PHOSPHORUS / POTASSIUM / SODIUM / TOTAL BILIRUBIN / TOTAL PROTEIN / CARBON DIOXIDE / LACTATE DEHYDROGENASE / LIPASE / URIC ACID: tissue Plasma
[1] = 11 mg/kg, dose level High, time 28 day
[2] = 72 h, dose 2.5 mg/Kg, dose level Low, time 3 day
[3] = 120 h, dose 2.5 mg/Kg, dose level Low, time 5 day

O=[N+]([O-])c1cc([As](=O)(O)O)ccc1O [ROXARSONE]
BASOPHIL [1]: 0.47% | EOSINOPHIL [1]: 0.51% | ERYTHROCYTE COUNT [1]: 8.5 x10E6/uL | HEMATOCRIT [1]: 51.09% | HEMOGLOBIN [1]: 16.79 G/DL | LEUKOCYTE COUNT [1]: 12.9 x10E3/uL | LYMPHOCYTE [1]: 81.69% | MEAN CORPUSCULAR HEMOGLOBIN [1]: 19.74 pg | MEAN CORPUSCULAR HEMOGLOBIN CONCENTRATION [1]: 32.83 G/DL | MEAN CORPUSCULAR VOLUME [1]: 60.14 fL | MONOCYTE [1]: 1.78% | NEUTROPHIL [1]: 14.18% | PLATELET COUNT [1]: 1300.33 x10E3/uL | ALANINE AMINOTRANSFERASE [1]: 30.56 u/L | ALBUMIN [1]: 3.98 G/DL | ALKALINE PHOSPHATASE [1]: 205 u/L | ASPARTATE AMINOTRANSFERASE [1]: 60.78 u/L | BLOOD UREA NITROGEN [1]: 11.78 mg/dL | CHLORIDE [1]: 107.33 MEQ/L | CHOLESTEROL [1]: 57.22 mg/dL | CREATINE PHOSPHOKINASE [1]: 179.11 u/L | CREATININE [1]: 0.44 mg/dL | GLUCOSE [1]: 136.78 mg/dL | PHOSPHORUS [1]: 11.58 mg/dL | POTASSIUM [1]: 6.69 MEQ/L | SODIUM [1]: 152.22 MEQ/L | TOTAL BILIRUBIN [1]: 0.23 mg/dL | TOTAL PROTEIN [1]: 6.68 G/DL | ABSOLUTE BASOPHIL [2]: 0 CELLS/uL | ABSOLUTE EOSINOPHIL [2]: 0 CELLS/uL | ABSOLUTE LYMPHOCYTE [2]: 9950.67 CELLS/uL | ABSOLUTE MONOCYTE [2]: 307.67 CELLS/uL | ABSOLUTE SEGMENTED NEUTROPHIL [2]: 1408.33 CELLS/uL | BASOPHIL [2]: 0% | EOSINOPHIL [2]: 0% | ERYTHROCYTE COUNT [2]: 5.09 x10E6/uL | HEMATOCRIT [2]: 33.27% | HEMOGLOBIN [2]: 13.17 G/DL | LEUKOCYTE COUNT [2]: 11.67 x10E3/uL | LYMPHOCYTE [2]: 85.33% | MEAN CORPUSCULAR HEMOGLOBIN [2]: 25.9 pg | MEAN CORPUSCULAR HEMOGLOBIN CONCENTRATION [2]: 39.6 G/DL | MEAN CORPUSCULAR VOLUME [2]: 65.4 fL | MONOCYTE [2]: 2.67% | NEUTROPHIL [2]: 12% | NUCLEATED RED BLOOD CELLS [2]: 0 /100WBC | PLATELET COUNT [2]: 1052.67 x10E3/uL | ALANINE AMINOTRANSFERASE [2]: 79.33 u/L | ALBUMIN [2]: 4.07 G/DL | ALKALINE PHOSPHATASE [2]: 426.33 u/L | ASPARTATE AMINOTRANSFERASE [2]: 104 u/L | BLOOD UREA NITROGEN [2]: 11 mg/dL | CARBON DIOXIDE [2]: 22 mmol/L | CHLORIDE [2]: 103.67 MEQ/L | CHOLESTEROL [2]: 66.33 mg/dL | CREATINE PHOSPHOKINASE [2]: 289.33 u/L | CREATININE [2]: 0.18 mg/dL | GLUCOSE [2]: 163.33 mg/dL | LACTATE DEHYDROGENASE [2]: 290.33 u/L | LIPASE [2]: 12.33 u/L | PHOSPHORUS [2]: 11 mg/dL | POTASSIUM [2]: 6.16 MEQ/L | SODIUM [2]: 142.77 MEQ/L | TOTAL BILIRUBIN [2]: 0.2 mg/dL | TOTAL PROTEIN [2]: 5.47 G/DL | URIC ACID [2]: 1.57 mg/dL | ABSOLUTE BASOPHIL [3]: 0 CELLS/uL | ABSOLUTE EOSINOPHIL [3]: 60.33 CELLS/uL | ABSOLUTE LYMPHOCYTE [3]: 15548.33 CELLS/uL | ABSOLUTE MONOCYTE [3]: 0 CELLS/uL | ABSOLUTE SEGMENTED NEUTROPHIL [3]: 2058 CELLS/uL | BASOPHIL [3]: 0% | EOSINOPHIL [3]: 0.33% | ERYTHROCYTE COUNT [3]: 5.56 x10E6/uL | HEMATOCRIT [3]: 35.6% | HEMOGLOBIN [3]: 14.43 G/DL | LEUKOCYTE COUNT [3]: 17.67 x10E3/uL | LYMPHOCYTE [3]: 88% | MEAN CORPUSCULAR HEMOGLOBIN [3]: 26 pg | MEAN CORPUSCULAR HEMOGLOBIN CONCENTRATION [3]: 40.53 G/DL | MEAN CORPUSCULAR VOLUME [3]: 64.1 fL | MONOCYTE [3]: 0% | NEUTROPHIL [3]: 11.67% | NUCLEATED RED BLOOD CELLS [3]: 0.33 /100WBC | PLATELET COUNT [3]: 1233.67 x10E3/uL | ALANINE AMINOTRANSFERASE [3]: 63.33 u/L | ALBUMIN [3]: 4.23 G/DL | ALKALINE PHOSPHATASE [3]: 389.33 u/L | ASPARTATE AMINOTRANSFERASE [3]: 94 u/L | BLOOD UREA NITROGEN [3]: 13 mg/dL | CARBON DIOXIDE [3]: 32.33 mmol/L | CHLORIDE [3]: 100.67 MEQ/L | CHOLESTEROL [3]: 60.67 mg/dL | CREATINE PHOSPHOKINASE [3]: 298.67 u/L | CREATININE [3]: 0.18 mg/dL | GLUCOSE [3]: 151 mg/dL | LACTATE DEHYDROGENASE [3]: 370 u/L | LIPASE [3]: 11.67 u/L | PHOSPHORUS [3]: 10.73 mg/dL | POTASSIUM [3]: 6.25 MEQ/L | SODIUM [3]: 142.83 MEQ/L | TOTAL BILIRUBIN [3]: 0.2 mg/dL | TOTAL PROTEIN [3]: 6.03 G/DL | URIC ACID [3]: 1.77 mg/dL
